Results published in BindingDB's records for patent US20240368194 (Shanghai Leadingtac Pharmaceutical, 2024).

target: T1, Interleukin-1 receptor-associated kinase 4 (Homo sapiens, UniProt Q9NWZ3); assay: 1RAK4 Kinase Activity Assay
T1 sequence (Q9NWZ3 whole entry): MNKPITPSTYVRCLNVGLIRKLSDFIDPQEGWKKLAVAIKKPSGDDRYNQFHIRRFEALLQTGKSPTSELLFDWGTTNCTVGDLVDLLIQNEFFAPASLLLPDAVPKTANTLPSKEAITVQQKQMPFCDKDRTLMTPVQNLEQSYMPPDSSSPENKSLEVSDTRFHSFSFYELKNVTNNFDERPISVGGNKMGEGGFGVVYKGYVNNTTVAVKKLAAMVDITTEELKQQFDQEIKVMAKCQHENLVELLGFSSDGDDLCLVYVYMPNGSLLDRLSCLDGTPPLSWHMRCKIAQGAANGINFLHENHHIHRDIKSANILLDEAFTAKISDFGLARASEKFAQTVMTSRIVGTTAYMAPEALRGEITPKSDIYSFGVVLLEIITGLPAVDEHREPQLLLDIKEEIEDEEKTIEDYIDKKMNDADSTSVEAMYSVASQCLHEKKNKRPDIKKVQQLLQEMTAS
Experimental: Then 2.5 nM 1RAK4 kinase (Carna), 1 μM biotinylated polypeptide substrate (Cisbio) and 7 μM adenosine triphosphate (Sigma-Aldrich) were sequentially added, and the mixtures were incubated at 37° C. for 120 min. Subsequently, an anti-phosphoserine/threonine antibody (Cisbio) conjugated with a europium element compound and conjugated modified XL665 streptavidin (Cisbio) were added to the reaction systems to stop the reactions. After 1 h of incubation at room temperature, the fluorescence intensity of each well was measured at the excitation wavelength of 337 nm and the emission wavelengths of 620 nm and 665 nm with a microplate reader EnVision (PerkinElmer) in the HTRF mode, and Ratio values were calculated using the formula Ratio=(665 nm/620 nm)×[…]. The inhibition rate of the compound at each concentration was calculated by comparing the fluorescence intensity ratio with that of the control group.

IC50 | Compound
0.36 µM | O=C1CCN(c2cc(C(=O)N3CCC4(CCN(C[C@H]5CC[C@H](n6cc(NC(=O)c7cnn8ccc(N9C[C@H]%10C[C@@H]9CO%10)nc78)c(Cl)n6)CC5)CC4)CC3)ccc2Cl)C(=O)N1 [US20240368194, Example 5]
0.313 µM | Cc1nn([C@H]2CC[C@H](CN3CCC4(CC3)CCN(C(=O)c3ccc(Cl)c(N5CCC(=O)NC5=O)c3)CC4)CC2)cc1NC(=O)c1cnn2ccc(N3C[C@H]4C[C@@H]3CO4)nc12 [US20240368194, Example 7]
0.0185 µM | CN(CCC1CCN(C(=O)c2ccc(Cl)c(N3CCC(=O)NC3=O)c2)CC1)C[C@H]1CC[C@H](n2cc(NC(=O)c3cnn4ccc(N5C[C@H]6C[C@@H]5CO6)nc34)c(C(F)F)n2)CC1 [US20240368194, Example 11]
0.0143 µM | O=C1CCC(c2ccc(C(=O)N3CCC4(CCC(CN5CCC(n6cc(NC(=O)c7cnn8ccc(N9CCOCC9)nc78)c(C(F)F)n6)CC5)CC4)CC3)cc2)C(=O)N1 (stereo not given) [US20240368194, Example 26]
0.0239 µM | CN(CCC1CCN(C(=O)c2ccc(OC(F)(F)F)c(N3CCC(=O)NC3=O)c2)CC1)C[C@H]1CC[C@H](n2cc(NC(=O)c3cnn4ccc(N5C[C@H]6C[C@@H]5CO6)nc34)c(C(F)F)n2)CC1 [US20240368194, Example 33]
0.02 µM | O=C1CCN(c2cc(C#CCOC3CCN(C[C@H]4CC[C@H](n5cc(NC(=O)c6cnn7ccc(N8CCOCC8)nc67)c(C(F)F)n5)CC4)CC3)ccc2Cl)C(=O)N1 [US20240368194, Example 38]
0.0255 µM | CN1CCN(c2ccn3ncc(C(=O)Nc4cn([C@H]5CC[C@H](CN(C)CCC6CCN(C(=O)c7ccc(F)c(N8CCC(=O)NC8=O)c7)CC6)CC5)nc4C(F)F)c3n2)CC1 [US20240368194, Example 41]
0.278 µM | CN(CC[C@H]1CC[C@H](n2cc(NC(=O)c3cnn4ccc(N5C[C@H]6C[C@@H]5CO6)nc34)c(C(F)F)n2)CC1)CC1CCN(C(=O)c2ccc(Cl)c(N3CCC(=O)NC3=O)c2)CC1 [US20240368194, Example 46]
0.00871 µM | COc1ccc(C(=O)N2CCC3(CCC(N(C)C[C@H]4CC[C@H](n5cc(NC(=O)c6cnn7ccc(N8CCOCC8)nc67)c(C(F)F)n5)CC4)CC3)CC2)cc1N1CCC(=O)NC1=O [US20240368194, Example 59]
0.0521 µM | CN(CCC1CCN(C(=O)c2ccc(Cl)c(N3CCC(=O)NC3=O)c2)CC1)C[C@]1(O)CC[C@@H](n2cc(NC(=O)c3cnn4ccc(N5C[C@H]6C[C@@H]5CO6)nc34)c(C(F)F)n2)CC1 [US20240368194, Example 65]
